≈ marks a conversion by molar mass, not a printed value. Read-outs that look alike come from different tables or passages of the source. Numbered stars: 1 amine (or outer) side, 2 acyl side, 3 side chain; on linkers, the order of the positions; unused ones are H or OH. Bridge positions count the residues as written; N and C are the ends. Peptide text beside a SMILES is read from it. * marks the point of attachment. C20 diacid = O=C(O)CCCCCCCCCCCCCCCCCCC(=O)*; γGlu = O=C(O)[C@H](CCC(=O)[*:2])N[*:1]
Columns and labels:
[1] = biological target: T1, human amylin 3(a) receptor (human calcitonin receptor + RAMP-3) in BHK570 cells (Homo sapiens, UniProt O60896+P30988); assay: ASSAY (II)a functional assay, human amylin receptor (CRE luciferase); type: cell-based
T1 construct: expressed in transfected cells
Outline: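 Receptor activation is measured as cAMP-driven CRE-luciferase expression in BHK cells expressing the calcitonin receptor, with RAMP-3 co-expressed to form the amylin 3(a) receptor. Cells are exposed to compound for 3 hours at 37° C, and luciferase is then quantified by luminescence.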

[2] = biological target: T2, human amylin receptor (membranes from Amylin 3(a)/CRE-luc cells) (Homo sapiens, UniProt O60896+P30988); assay: ASSAY (V) binding to the human amylin receptor (SPA, 125I-rat amylin);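 note: competition binding of cell membranes (35 ng/µL) mixed with SPA beads in 384-well plates at 40 µL total volume, read by scintillation counting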
T2 construct: expressed in transfected cells
T2 sequence (P30988 25-474): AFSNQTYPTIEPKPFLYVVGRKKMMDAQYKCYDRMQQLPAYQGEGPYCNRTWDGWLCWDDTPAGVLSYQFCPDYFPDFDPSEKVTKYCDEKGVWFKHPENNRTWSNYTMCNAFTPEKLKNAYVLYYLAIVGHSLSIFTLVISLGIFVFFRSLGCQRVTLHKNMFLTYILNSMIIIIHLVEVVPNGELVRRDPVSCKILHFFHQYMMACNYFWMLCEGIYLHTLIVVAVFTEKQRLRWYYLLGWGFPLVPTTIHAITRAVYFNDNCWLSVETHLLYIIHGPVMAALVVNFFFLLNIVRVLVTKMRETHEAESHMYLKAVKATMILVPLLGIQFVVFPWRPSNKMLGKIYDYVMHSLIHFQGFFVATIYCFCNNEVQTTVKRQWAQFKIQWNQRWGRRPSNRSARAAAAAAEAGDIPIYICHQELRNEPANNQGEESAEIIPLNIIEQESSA
T2 sequence (O60896 24-148 partner): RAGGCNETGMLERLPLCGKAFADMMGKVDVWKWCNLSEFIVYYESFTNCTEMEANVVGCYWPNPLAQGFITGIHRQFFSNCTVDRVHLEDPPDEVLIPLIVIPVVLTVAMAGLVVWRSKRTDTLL

[3] = ASSAY (IV) determination of solubility; type: physicochemical
Outline: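 Solubility measured by UPLC of supernatant after centrifugation, following 18 h at room temperature. Peptide ([…] in water) was diluted 1:1 into 100 mM glycylglycine (pH 3.0, 4.0, 5.0) or bistrispropane (pH 6.0-8.0).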

[4] = hCTR funct. EC50 divided by hAmylin-R funct. EC50
[5] = hCTR funct. EC50 over hAmylin-R funct. EC50
[6] = human functional selectivity: hCTR funct. EC50 / hAmylin-R funct. EC50
[7] = Table 5, selectivity, hCTR bind IC50 / hAmylin-R bind IC50
[8] = Table 5a, selectivity, hCTR bind IC50 / hAmylin-R bind IC50
[9] = Table 5b, selectivity, hCTR bind IC50 / hAmylin-R bind IC50
[10] = Table 5c, selectivity, hCTR bind IC50 / hAmylin-R bind IC50
[11] = Table 7, human binding selectivity, included for comparison
[12] = Table 7a (preferred compounds), human binding selectivity, included for comparison
[13] = ratio of human calcitonin receptor binding IC50 to human amylin receptor binding IC50
[14] = bistrispropane buffer, pH 6.5, read-out: Solubility pH 6.5 Concentration
[15] = bistrispropane buffer, pH 7.5, read-out: Solubility pH 7.5 Concentration
[16] = bistrispropane buffer, pH 6.0, read-out: Solubility pH 6.0 Concentration
[17] = bistrispropane buffer, pH 7.0, read-out: Solubility pH 7.0 Concentration
[18] = bistrispropane buffer, pH 8.0, read-out: Solubility pH 8.0 Concentration
[19] = glycylglycine buffer, pH 3.0, read-out: Solubility pH 3.0 Concentration
[20] = glycylglycine buffer, pH 4.0, read-out: Solubility pH 4.0 Concentration

| SMILES | Ratio hCT/hAmylin funct. [1, 4] | Ratio hCT/hAmylin funct. [1, 5] | Ratio hCT/hAmylin funct. [1, 6] | Ratio hCT/hAmylin binding [2, 7] | Ratio hCT/hAmylin binding [2, 8] | Ratio hCT/hAmylin binding [2, 9] | Ratio hCT/hAmylin binding [2, 10] | Ratio hCT/hAmylin binding [2, 11] | Ratio hCT/hAmylin binding [2, 12] | Ratio hCT/hAmylin binding [2, 13] | solubility at 18 h [3, 14] [µM] | solubility at 18 h [3, 15] [µM] | solubility at 18 h [3, 16] [µM] | solubility at 18 h [3, 17] [µM] | solubility at 18 h [3, 18] [µM] | solubility at 18 h [3, 19] [µM] | solubility at 18 h [3, 20] [µM] | solubility at 18 h ([3]; glycylglycine buffer, pH 5.0, read-out: Solubility pH 5.0 Concentration) [µM] | Solubility pH 6.5 Concentration ([3]; pH 6.5 (Table 9a)) |
| --- | --- | --- | --- | --- | --- | --- | --- | --- | --- | --- | --- | --- | --- | --- | --- | --- | --- | --- | --- |
| CC[C@H](C)[C@H](NC(=O)[C@H](C)NC(=O)CNC(=O)[C@H](Cc1ccccc1)NC(=O)[C@H](CC(N)=O)NC(=O)[C@@H]1CCCN1C(=O)[C@H](CO)NC(=O)[C@H](CO)NC(=O)[C@H](Cc1c[nH]cn1)NC(=O)[C@H](CCCNC(=N)N)NC(=O)[C@H](CC(C)C)NC(=O)[C@H](Cc1ccccc1)NC(=O)[C@H](Cc1c[nH]cn1)NC(=O)[C@H](C)NC(=O)[C@H](CC(C)C)NC(=O)[C@H](CCCNC(=N)N)NC(=O)[C@H](CCC(N)=O)NC(=O)[C@@H](NC(=O)[C@H](C)NC(=O)[C@@H]1CSSC[C@H](NC(=O)[C@H](CCCNC(=N)N)NC(=O)CNC(=O)CC[C@H](NC(=O)CCCCCCCCCCCCCCCCCCC(=O)O)C(=O)O)C(=O)N[C@@H](CC(N)=O)C(=O)N[C@@H]([C@@H](C)O)C(=O)N[C@@H](C)C(=O)N[C@@H]([C@@H](C)O)C(=O)N1)[C@@H](C)O)C(=O)N1CCC[C@H]1C(=O)N[C@@H](CO)C(=O)N[C@@H](CO)C(=O)N[C@H](C(=O)N[C@@H](CC(N)=O)C(=O)N[C@H](C(=O)NCC(=O)N[C@@H](CO)C(=O)N[C@@H](CC(N)=O)C(=O)N[C@H](C(=O)N[C@@H](Cc1ccc(O)cc1)C(N)=O)[C@@H](C)O)C(C)C)[C@@H](C)O [Example 99] ({C20 diacid-γGlu}-GRCNTATCATQRLAHFLRHSSPNFGAIPSSTNVGSNTY-NH2; disulfide 3-8) | 10.0 | 10.0 | 10.0 | 100.4 | 100.4 | 100.4 | 100.4 | 100.4 | 100.4 | 100.4 | ≥ 200 | 94 (≈ 422 µg/mL) | ≥ 200 | 154 (≈ 691 µg/mL) | 120 (≈ 539 µg/mL) | ≥ 200 | ≥ 200 | ≥ 200 |  |
| CC[C@H](C)[C@H](NC(=O)[C@H](C)NC(=O)CNC(=O)[C@H](Cc1ccccc1)NC(=O)[C@H](CC(N)=O)NC(=O)[C@@H]1CCCN1C(=O)[C@H](CO)NC(=O)[C@H](CO)NC(=O)[C@H](Cc1c[nH]cn1)NC(=O)[C@H](CCCNC(=N)N)NC(=O)[C@H](CC(C)C)NC(=O)[C@H](Cc1ccccc1)NC(=O)[C@H](Cc1c[nH]cn1)NC(=O)[C@H](C)NC(=O)[C@H](CC(C)C)NC(=O)[C@H](CCCNC(=N)N)NC(=O)[C@H](CCC(N)=O)NC(=O)[C@@H](NC(=O)[C@H](C)NC(=O)[C@@H]1CSSC[C@H](NC(=O)[C@H](CCCNC(=N)N)NC(=O)CNC(=O)CC[C@H](NC(=O)CCCCCCCCCCCCCCCCCCC(=O)O)C(=O)O)C(=O)N[C@@H](CC(N)=O)C(=O)N[C@@H]([C@@H](C)O)C(=O)N[C@@H](C)C(=O)N[C@@H]([C@@H](C)O)C(=O)N1)[C@@H](C)O)C(=O)N1CCC[C@H]1C(=O)N[C@@H](CO)C(=O)N[C@@H](CO)C(=O)N[C@H](C(=O)N[C@@H](CC(N)=O)C(=O)N[C@H](C(=O)NCC(=O)N[C@@H](Cc1c[nH]cn1)C(=O)N[C@@H](CC(N)=O)C(=O)N[C@H](C(=O)N[C@@H](Cc1ccc(O)cc1)C(N)=O)[C@@H](C)O)C(C)C)[C@@H](C)O [Example 100] ({C20 diacid-γGlu}-GRCNTATCATQRLAHFLRHSSPNFGAIPSSTNVGHNTY-NH2; disulfide 3-8 (inferred)) | 6.8 | 6.8 | 6.8 | 65.3 | 65.3 | 65.3 | 65.3 | 65.3 | 65.3 | 65.3 | ≥ 200 | 26 (≈ 118 µg/mL) | ≥ 200 | 109 (≈ 495 µg/mL) | 31 (≈ 141 µg/mL) | ≥ 200 | ≥ 200 |  | ≧200 μM |
